Laboratory results published in ChEMBL document CHEMBL5236617, “Rapid Evolution of a Fragment-like Molecule to Pan-Metallo-Beta-Lactamase Inhibitors: Initial Leads toward Clinical Candidates” (J Med Chem, 2022).
Where “and” joins values, the source holds several entries; their conditions need not be identical. Identical values can stand only once. Each block holds one molecule with its values, some of them ahead of it. Calls of active or inactive are those of the source. No cut-off for these calls is given here.

How the values were obtained:
[1] = Inhibition of GST-tagged bacterial beta-lactamase […] expressed in Escherichia coli BL21(DE3) using CCF2-FA as substrate by fluorescence assay; design: species or system Bacteria
[2] = Inhibition of GST-tagged bacterial beta-lactamase IMP-1 expressed in Escherichia coli BL21(DE3) using CCF2-FA as substrate by fluorescence assay; design: species or system Bacteria
[3] = Inhibition of GST-tagged bacterial beta-lactamase VIM-1 expressed in Escherichia coli BL21(DE3) using CCF2-FA as substrate by fluorescence assay; design: species or system Bacteria
[4] = target: Voltage-gated inwardly rectifying potassium channel KCNH2 (Homo sapiens, UniProt Q12809); test: Displacement of MK499 from human ERG
Voltage-gated inwardly rectifying potassium channel KCNH2, sequence (Q12809 whole entry): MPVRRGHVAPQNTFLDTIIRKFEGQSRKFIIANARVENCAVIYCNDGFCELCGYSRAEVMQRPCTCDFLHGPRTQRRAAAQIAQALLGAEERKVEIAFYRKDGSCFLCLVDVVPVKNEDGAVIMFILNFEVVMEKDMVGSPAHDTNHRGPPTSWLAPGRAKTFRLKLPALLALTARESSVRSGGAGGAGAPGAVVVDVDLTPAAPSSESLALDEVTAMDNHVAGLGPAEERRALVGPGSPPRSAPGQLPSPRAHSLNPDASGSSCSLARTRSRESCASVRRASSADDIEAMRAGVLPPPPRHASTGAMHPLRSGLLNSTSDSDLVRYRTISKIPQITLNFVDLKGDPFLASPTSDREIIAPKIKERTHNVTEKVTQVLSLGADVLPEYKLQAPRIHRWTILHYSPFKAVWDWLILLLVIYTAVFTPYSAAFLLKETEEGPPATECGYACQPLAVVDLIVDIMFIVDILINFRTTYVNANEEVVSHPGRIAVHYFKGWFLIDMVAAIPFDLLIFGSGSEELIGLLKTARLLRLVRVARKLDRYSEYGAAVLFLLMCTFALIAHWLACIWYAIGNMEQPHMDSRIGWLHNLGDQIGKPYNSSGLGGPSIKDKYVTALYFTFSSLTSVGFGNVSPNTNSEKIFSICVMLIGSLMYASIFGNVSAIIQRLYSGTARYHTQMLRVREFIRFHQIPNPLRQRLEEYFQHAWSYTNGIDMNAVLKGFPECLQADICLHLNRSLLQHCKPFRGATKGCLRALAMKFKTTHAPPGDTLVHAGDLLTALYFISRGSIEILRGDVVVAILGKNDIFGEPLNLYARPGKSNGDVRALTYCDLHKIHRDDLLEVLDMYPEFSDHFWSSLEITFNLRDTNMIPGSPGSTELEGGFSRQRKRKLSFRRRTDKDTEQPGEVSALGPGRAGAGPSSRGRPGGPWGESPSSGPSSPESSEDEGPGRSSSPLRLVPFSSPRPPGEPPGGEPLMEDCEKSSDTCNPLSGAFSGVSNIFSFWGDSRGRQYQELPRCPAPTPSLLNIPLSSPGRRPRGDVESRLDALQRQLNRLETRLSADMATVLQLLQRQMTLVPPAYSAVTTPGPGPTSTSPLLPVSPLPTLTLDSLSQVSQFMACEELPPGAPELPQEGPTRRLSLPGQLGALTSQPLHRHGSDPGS

[5] = target: Sodium channel protein type 5 subunit alpha (Homo sapiens, UniProt Q14524); test: Inhibition of Nav1.5 (unknown origin)
Sodium channel protein type 5 subunit alpha, sequence (Q14524 whole entry): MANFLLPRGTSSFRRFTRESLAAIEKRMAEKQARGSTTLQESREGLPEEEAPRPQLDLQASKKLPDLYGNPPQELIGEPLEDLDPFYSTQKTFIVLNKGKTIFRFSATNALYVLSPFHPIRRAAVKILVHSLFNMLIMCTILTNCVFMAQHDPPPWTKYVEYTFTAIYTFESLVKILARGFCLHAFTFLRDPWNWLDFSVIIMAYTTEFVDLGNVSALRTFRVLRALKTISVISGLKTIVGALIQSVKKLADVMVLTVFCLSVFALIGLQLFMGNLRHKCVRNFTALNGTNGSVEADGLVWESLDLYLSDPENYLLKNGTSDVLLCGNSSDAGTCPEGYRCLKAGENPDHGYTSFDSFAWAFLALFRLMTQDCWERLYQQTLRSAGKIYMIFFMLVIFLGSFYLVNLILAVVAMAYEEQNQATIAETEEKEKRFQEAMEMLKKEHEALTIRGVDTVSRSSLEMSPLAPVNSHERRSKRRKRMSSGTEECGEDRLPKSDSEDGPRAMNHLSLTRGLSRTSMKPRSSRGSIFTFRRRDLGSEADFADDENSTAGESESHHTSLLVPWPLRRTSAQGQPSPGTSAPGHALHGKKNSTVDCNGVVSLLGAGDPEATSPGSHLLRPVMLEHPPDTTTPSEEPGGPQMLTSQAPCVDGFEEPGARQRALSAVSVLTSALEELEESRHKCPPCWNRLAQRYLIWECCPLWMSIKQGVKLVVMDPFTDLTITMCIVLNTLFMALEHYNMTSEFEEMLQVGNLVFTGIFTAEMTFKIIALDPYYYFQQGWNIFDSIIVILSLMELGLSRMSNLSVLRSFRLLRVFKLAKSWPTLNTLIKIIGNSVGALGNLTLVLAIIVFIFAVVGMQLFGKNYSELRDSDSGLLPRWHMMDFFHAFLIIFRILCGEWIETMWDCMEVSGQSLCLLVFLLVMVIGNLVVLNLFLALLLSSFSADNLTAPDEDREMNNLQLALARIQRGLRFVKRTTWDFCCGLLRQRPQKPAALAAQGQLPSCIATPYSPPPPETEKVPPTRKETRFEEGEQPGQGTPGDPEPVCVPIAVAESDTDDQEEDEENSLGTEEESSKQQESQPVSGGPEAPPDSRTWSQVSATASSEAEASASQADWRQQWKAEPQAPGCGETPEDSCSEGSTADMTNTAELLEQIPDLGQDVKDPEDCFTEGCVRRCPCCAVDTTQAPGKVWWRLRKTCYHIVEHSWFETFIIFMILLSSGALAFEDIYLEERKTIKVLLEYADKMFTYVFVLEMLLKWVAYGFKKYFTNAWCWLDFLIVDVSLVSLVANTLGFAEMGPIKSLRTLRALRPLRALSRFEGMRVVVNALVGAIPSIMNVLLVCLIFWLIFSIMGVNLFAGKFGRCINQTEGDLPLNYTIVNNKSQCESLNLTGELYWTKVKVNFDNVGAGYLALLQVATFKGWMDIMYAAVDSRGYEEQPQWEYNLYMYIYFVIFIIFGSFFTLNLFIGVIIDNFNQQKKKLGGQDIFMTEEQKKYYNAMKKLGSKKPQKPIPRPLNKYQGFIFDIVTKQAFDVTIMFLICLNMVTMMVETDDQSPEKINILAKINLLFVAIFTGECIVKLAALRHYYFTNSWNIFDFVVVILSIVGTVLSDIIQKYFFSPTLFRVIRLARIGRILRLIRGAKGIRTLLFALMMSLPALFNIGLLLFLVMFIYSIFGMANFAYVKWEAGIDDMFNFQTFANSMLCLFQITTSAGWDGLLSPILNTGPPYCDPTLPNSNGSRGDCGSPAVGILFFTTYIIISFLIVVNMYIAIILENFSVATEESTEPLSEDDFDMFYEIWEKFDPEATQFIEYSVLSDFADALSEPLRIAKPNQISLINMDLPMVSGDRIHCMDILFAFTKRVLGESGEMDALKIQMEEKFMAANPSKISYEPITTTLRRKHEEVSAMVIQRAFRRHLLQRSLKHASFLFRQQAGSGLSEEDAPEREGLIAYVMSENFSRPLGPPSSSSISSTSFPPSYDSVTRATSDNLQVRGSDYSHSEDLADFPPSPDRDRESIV

Cytochrome P450 3A4 = Cytochrome P450 3A4 (Homo sapiens, UniProt P08684); test: Reversible inhibition of CYP3A4 (unknown origin); format: ADME
Cytochrome P450 3A4, sequence (P08684 whole entry): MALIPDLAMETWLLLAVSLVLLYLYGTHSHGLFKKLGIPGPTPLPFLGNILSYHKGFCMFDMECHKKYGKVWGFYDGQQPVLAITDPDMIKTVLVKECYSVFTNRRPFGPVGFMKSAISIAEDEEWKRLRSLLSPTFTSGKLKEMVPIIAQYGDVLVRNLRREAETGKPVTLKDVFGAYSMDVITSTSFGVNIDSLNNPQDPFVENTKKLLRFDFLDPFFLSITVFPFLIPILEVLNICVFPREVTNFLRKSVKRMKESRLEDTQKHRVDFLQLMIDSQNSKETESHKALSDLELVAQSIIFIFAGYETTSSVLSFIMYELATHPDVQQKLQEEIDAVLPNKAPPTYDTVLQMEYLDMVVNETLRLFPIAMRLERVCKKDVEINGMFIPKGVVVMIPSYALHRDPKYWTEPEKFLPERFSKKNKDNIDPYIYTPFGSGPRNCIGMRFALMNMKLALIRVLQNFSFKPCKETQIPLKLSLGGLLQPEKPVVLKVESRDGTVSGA

Cytochrome P450 2D6 = Cytochrome P450 2D6 (Homo sapiens, UniProt P10635); test: Reversible inhibition of CYP2D6 (unknown origin); format: ADME
Cytochrome P450 2D6, sequence (P10635 whole entry): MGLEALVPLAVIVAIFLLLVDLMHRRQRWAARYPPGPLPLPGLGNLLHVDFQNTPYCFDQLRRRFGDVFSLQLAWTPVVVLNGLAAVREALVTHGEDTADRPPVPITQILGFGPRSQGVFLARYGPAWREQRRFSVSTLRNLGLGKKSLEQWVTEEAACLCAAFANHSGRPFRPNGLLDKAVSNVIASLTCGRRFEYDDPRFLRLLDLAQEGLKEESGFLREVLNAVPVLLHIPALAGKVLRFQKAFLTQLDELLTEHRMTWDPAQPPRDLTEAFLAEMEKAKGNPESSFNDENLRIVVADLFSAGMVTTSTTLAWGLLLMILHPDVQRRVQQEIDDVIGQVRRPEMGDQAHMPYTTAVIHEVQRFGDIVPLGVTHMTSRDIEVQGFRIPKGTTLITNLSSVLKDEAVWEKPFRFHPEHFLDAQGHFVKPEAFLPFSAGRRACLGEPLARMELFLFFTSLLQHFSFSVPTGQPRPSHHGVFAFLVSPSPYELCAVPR

Cytochrome P450 2C9 = Cytochrome P450 2C9 (Homo sapiens, UniProt P11712); test: Reversible inhibition of CYP2C9 (unknown origin); format: ADME
Cytochrome P450 2C9, sequence (P11712 whole entry): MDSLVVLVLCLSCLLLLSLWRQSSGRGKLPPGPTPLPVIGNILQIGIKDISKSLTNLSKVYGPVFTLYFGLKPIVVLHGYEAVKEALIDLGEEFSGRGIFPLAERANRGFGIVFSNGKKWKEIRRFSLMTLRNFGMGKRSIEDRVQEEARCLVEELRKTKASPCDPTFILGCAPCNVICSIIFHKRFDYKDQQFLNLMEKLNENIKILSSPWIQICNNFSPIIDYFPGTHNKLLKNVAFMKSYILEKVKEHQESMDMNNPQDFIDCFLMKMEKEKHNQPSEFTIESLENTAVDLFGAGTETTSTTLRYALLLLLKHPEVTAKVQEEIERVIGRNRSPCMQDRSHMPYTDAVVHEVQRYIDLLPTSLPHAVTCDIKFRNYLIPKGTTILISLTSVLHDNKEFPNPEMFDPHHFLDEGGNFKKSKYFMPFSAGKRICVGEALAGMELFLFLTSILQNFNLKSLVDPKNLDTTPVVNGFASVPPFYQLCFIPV

[6] = target: T1, Nuclear receptor subfamily 1 group I member 2 (Homo sapiens, UniProt O75469); test: Inhibition of human PXR
T1 sequence (O75469 whole entry): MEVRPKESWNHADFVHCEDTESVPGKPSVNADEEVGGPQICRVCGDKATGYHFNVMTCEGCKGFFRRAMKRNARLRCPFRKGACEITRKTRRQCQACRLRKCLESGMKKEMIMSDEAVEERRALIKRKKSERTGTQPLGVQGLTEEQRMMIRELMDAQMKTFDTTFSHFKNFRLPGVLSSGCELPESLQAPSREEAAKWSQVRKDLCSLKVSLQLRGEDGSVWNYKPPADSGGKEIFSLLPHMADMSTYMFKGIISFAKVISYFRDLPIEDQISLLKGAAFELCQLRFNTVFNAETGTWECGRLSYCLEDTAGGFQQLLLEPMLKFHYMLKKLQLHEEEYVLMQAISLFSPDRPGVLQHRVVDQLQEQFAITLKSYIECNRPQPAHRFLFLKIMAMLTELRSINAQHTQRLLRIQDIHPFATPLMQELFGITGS

PXR (NR1I2) = target: T2, PXR (NR1I2) (Homo sapiens, UniProt O75469); test: Inhibition of human PXR at 30 uM relative to control
T2 sequence (O75469 whole entry): T1 sequence (O75469 whole entry)

[7] = Plasma protein binding in C57BL/6 mouse assessed as unbound fraction; format: ADME, cell-free
[8] = Plasma protein binding in Wistar Han rat assessed as unbound fraction; format: ADME, cell-free
[9] = Plasma protein binding in human assessed as unbound fraction; format: ADME, cell-free
[10] = AUC in mouse at 5 mg/kg, iv; format: ADME, organism-based; design: dose 5 mg/kg, route iv; conditions: in vivo
[11] = MRT in mouse at 5 mg/kg, iv; format: ADME, organism-based; conditions: in vivo
[12] = Volume of distribution at steady state in mouse at 5 mg/kg, iv; format: ADME, organism-based; conditions: in vivo, read-out: Vdss
[13] = Clearance in mouse at 5 mg/kg, iv; format: ADME, organism-based; conditions: in vivo
[14] = AUC in mouse at 10 mg/kg, sc; format: ADME, organism-based; design: dose 10 mg/kg, route sc; conditions: in vivo
[15] = AUC in mouse at 50 mg/kg, sc; format: ADME, organism-based; design: dose 50 mg/kg, route sc; conditions: in vivo
[16] = Cmax in mouse at 10 mg/kg, sc; format: ADME, organism-based; design: dose 10 mg/kg, route sc; conditions: in vivo
[17] = Cmax in mouse at 50 mg/kg, sc; format: ADME, organism-based; design: dose 50 mg/kg, route sc; conditions: in vivo
[18] = Tmax in mouse at 10 mg/kg, sc; format: ADME, organism-based; conditions: in vivo
[19] = Tmax in mouse at 50 mg/kg, sc; format: ADME, organism-based; conditions: in vivo
CYP3A4 = CYP3A4 (Homo sapiens, UniProt P08684); test: in vitro
CYP3A4, sequence (P08684 whole entry): as the sequence (P08684 whole entry) above

Escherichia coli [20] = test: Potentiation of imipenem-induced antibacterial activity against NDM-1 expressing Escherichia coli assessed as imipenem MIC incubated for 22 to 24 hrs (reference value: 32 ug/ml); format: functional; conditions: time 22-24 hrs
Serratia marcescens = test: Potentiation of imipenem-induced antibacterial activity against IMP-1 expressing Serratia marcescens assessed as imipenem MIC incubated for 22 to 24 hrs (reference value: 16 ug/ml); format: functional; conditions: time 22-24 hrs
Klebsiella pneumoniae [21] = test: Potentiation of imipenem-induced antibacterial activity against VIM-1 expressing Klebsiella pneumoniae assessed as imipenem MIC incubated for 22 to 24 hrs (reference value: 16 ug/ml); format: functional; conditions: time 22-24 hrs
[22] = Selectivity ratio of MITC50 for NDM-1 expressing Escherichia coli to IC50 for GST-tagged bacterial beta-lactamase […]
[23] = Selectivity ratio of MITC50 for IMP-1 expressing Serratia marcescens to IC50 for GST-tagged bacterial beta-lactamase IMP-1
[24] = Selectivity ratio of MITC50 for VIM-1 expressing Klebsiella pneumoniae to IC50 for GST-tagged bacterial beta-lactamase VIM-1
Escherichia coli [25] = test: Antibacterial activity against Escherichia coli CLB30005 expressing NDM-1 assessed as growth inhibition in presence of ZnSO4; format: functional, organism-based
Klebsiella pneumoniae [26] = test: Antibacterial activity against Klebsiella pneumoniae MB9249 expressing IMP-26 infected in cyclophosphamide treated DBA/2 mouse assessed as reduction in bacterial burden in kidney at 5 mg/kg, sc administered three times for 1 day and measured after 24 hrs post injection; format: functional, organism-based
Klebsiella pneumoniae [27] = test: Antibacterial activity against Klebsiella pneumoniae MB9249 expressing IMP-26 infected in cyclophosphamide treated DBA/2 mouse assessed as reduction in bacterial burden in spleen at 5 mg/kg, sc administered three times for 1 day and measured after 24 hrs post injection; format: functional, organism-based

SMILES: NS(=O)(=O)c1cccc(-c2ccnc(CO)c2)c1-c1nn[nH]n1
MITC95 (Escherichia coli [20]): 0.39 µM | MITC95 (Serratia marcescens): 50 µM

SMILES: C[C@@H](O)[C@H]1C(=O)N2C(C(=O)O)=C(SCCNC=N)C[C@H]12
Activity (Klebsiella pneumoniae [26]): Active | Activity (Klebsiella pneumoniae [27]): Active

SMILES: NS(=O)(=O)c1ccnc(-c2ccc(CO)cc2)c1-c1nn[nH]n1
IC50 [1]: 36 nM | IC50 [2]: 767 nM | IC50 [3]: 4130 nM | MITC95 (Escherichia coli [20]): 2.3 µM | MITC95 (Serratia marcescens): 37 µM | MITC95 (Klebsiella pneumoniae [21]): >200 µM

SMILES: NCCNC(=O)C[N+]12CC[N+](Cc3ccc(-c4ccc(C[C@H](C(=O)O)[C@H](Cc5ccccc5)C(=O)O)cc4)cc3)(CC1)CC2
IC50 [1]: > 200 nM | IC50 [3]: 2.8 nM

SMILES: CCCCc1nc2ccc(O)cc2c(=O)n1Cc1ccc(-c2ccccc2-c2nnn[nH]2)cc1
IC50 [1]: 52 nM | IC50 [3]: 13 nM

SMILES: c1ccc(-c2ccccc2-c2nn[nH]n2)cc1
IC50 [1]: 44 nM | IC50 [2]: 2 nM | IC50 [3]: 22 nM

The next lines start with results.

IC50 [1]: 3.3 nM | IC50 [2]: 17 nM | IC50 [3]: 7 nM
SMILES: Nc1cc(-c2nnn[nH]2)c(S(N)(=O)=O)cc1S(N)(=O)=O

IC50 (Cytochrome P450 3A4): > 30000 nM | IC50 (Cytochrome P450 2D6): > 30000 nM | IC50 (Cytochrome P450 2C9): > 30000 nM | IC50 [6]: > 30000 nM | Emax at 30 µM (PXR (NR1I2)): 1.94% | fraction unbound [7]: 0.43 | fraction unbound [8]: 0.3 | fraction unbound [9]: 0.23 | AUC [10]: 27.1 µM·h | MRT [11]: 312 min | Vd [12]: 2.97 L/kg | clearance [13]: 9.33 mL/min/kg | AUC [14]: 27.4 µM·h | AUC [15]: 111 µM·h | Cmax [16]: 13.4 µM | Cmax [17]: 69.1 µM | Tmax [18]: 49.8 min | Tmax [19]: 30 min | IC50 shift (CYP3A4): 1
SMILES: NS(=O)(=O)c1nccc(-c2ccc(CO)cc2)c1-c1nnn[nH]1
IC50 [4]: > 60000 nM | IC50 [5]: > 30000 nM

IC50 [1]: 3.9 nM and 3.7 nM | IC50 [2]: 64 nM | IC50 [3]: 57.5 nM and 57 nM | Selectivity ratio [23]: 215 | Selectivity ratio [24]: 2230
SMILES: Cc1ccc(-c2cccc(S(N)(=O)=O)c2-c2nnn[nH]2)cc1
MITC95 (Escherichia coli [20]): 1.48 µM | MITC95 (Serratia marcescens): 13.8 µM | MITC95 (Klebsiella pneumoniae [21]): 127 µM | Selectivity ratio [22]: 400 | Activity (Escherichia coli [25]): inactive

IC50 [1]: 4960 nM | IC50 [2]: 2360 nM | IC50 [3]: 8640 nM
SMILES: Cc1ccc(-c2cccc(S(=O)(=O)O)c2-c2nnn[nH]2)cc1

IC50 [1]: 35 nM | IC50 [2]: 375 nM | IC50 [3]: 201 nM
SMILES: NS(=O)(=O)c1nccc(-c2ccccc2)c1-c1nn[nH]n1
MITC95 (Escherichia coli [20]): <0.195 µM

IC50 [1]: 24 nM | IC50 [2]: 1780 nM | IC50 [3]: 269 nM | Selectivity ratio [23]: 28 | Selectivity ratio [24]: 185
SMILES: NS(=O)(=O)c1cccc(-c2cccnc2)c1-c1nn[nH]n1
MITC95 (Escherichia coli [20]): 0.39 µM | MITC95 (Serratia marcescens): 50 µM | MITC95 (Klebsiella pneumoniae [21]): 50 µM | Selectivity ratio [22]: 16
